# Data from ChEMBL document CHEMBL5390207, “Cyclotheonellazoles D-I, Potent Elastase Inhibitory Thiazole-Containing Cyclic Peptides from Theonella sp. (2131)” (J Nat Prod, 2023).
# Activity calls are given as the source filed them. No cut-off for these calls is given here. Starred links: 1 amine or outer side, 2 acyl side, 3 side chain; linkers in the order of their positions; H or OH if unused. Positions of bridges follow the written chain, without caps; N, C: chain ends. Non-standard residues stand in square brackets, D forms with d. Residues, ends and D or L forms follow the SMILES beside them. X2 = O=C(/C=C/c1csc([C@H](Cc2ccc(O)cc2)N[*:1])n1)[*:2]; X1 = CC[C@H](C)[C@H](N[*:1])C(=O)C(=O)[*:2]; Cya = N[C@@H](CS(=O)(=O)O)C(=O)O; Nva = CCC[C@H](N)C(=O)O; Abu = CC[C@H](N)C(=O)O; Dap = NC[C@H](N)C(=O)O
# Legend:
# [1] = Inhibition of porcine pancreatic elastase using N-succinyl-Ala-Ala-Ala-p-nitroanilide as substrate preincubated with enzyme for 15 mins followed by substrate addition and measured for 30 mins; parameters: species or system Sus scrofa
# Chymotrypsinogen A = Chymotrypsinogen A (Bos taurus, UniProt P00766); assay: Inhibition of bovine pancreatic alpha chymotrypsin using N-succinyl-Gly-Gly-Phe-p-nitroanilide as substrate preincubated with enzyme for 10 mins followed by substrate addition and measured for 30 mins
# [2] = biological target: Replicase polyprotein 1ab (Severe acute respiratory syndrome coronavirus 2, UniProt P0DTD1); assay: Inhibition of SARS-CoV-2 3CLpro incubated for 4 hrs
# OVCAR [3] = assay: Cytotoxicity against human OVCAR cells assessed as cell viability at > 20 uM incubated for 72 hrs by resazurin dye based fluorescence assay; type: functional
# HCT-116 [4] = assay: Cytotoxicity against human HCT-116 cells assessed as cell viability at >20 uM incubated for 72 hrs by resazurin dye based fluorescence assay; type: functional
# MDA-MB-231 [5] = assay: Cytotoxicity against human MDA-MB-231 cells assessed as cell viability at >20 uM incubated for 72 hrs by resazurin dye based fluorescence assay; type: functional
# L1210 = assay: Cytotoxicity against mouse L1210 cells assessed as reduction in cell viability; type: functional, cell-based
# KB = assay: Cytotoxicity against human KB cells assessed as reduction in cell viability; type: functional, cell-based
# OVCAR [6] = assay: Cytotoxicity against human OVCAR cells assessed as cell viability upto 100 uM incubated for 72 hrs by resazurin dye based fluorescence assay; type: functional
# HCT-116 [7] = assay: Cytotoxicity against human HCT-116 cells assessed as cell viability upto 100 uM incubated for 72 hrs by resazurin dye based fluorescence assay; type: functional
# MDA-MB-231 [8] = assay: Cytotoxicity against human MDA-MB-231 cells assessed as cell viability upto 100 uM incubated for 72 hrs by resazurin dye based fluorescence assay; type: functional
SMILES,IC50 [1] [nM],IC50 (Chymotrypsinogen A) [nM],IC50 [2] [nM],Activity (OVCAR [6]),Activity (HCT-116 [7]),Activity (MDA-MB-231 [8]),other results
CC(C)C[C@@H]1NC(=O)[C@H](NC(=O)N[C@@H](Cc2ccccc2)C(=O)O)CCCCNC(=O)[C@H](Cc2ccccc2)NC(=O)[C@H](Cc2c[nH]c3cc(Cl)c(O)cc23)N(C)C(=O)[C@H](CC(C)C)NC1=O,51.3,730,1100,,,,
CC(C)C[C@@H]1NC(=O)[C@H](NC(=O)N[C@@H](Cc2ccccc2)C(=O)O)CCCCNC(=O)[C@H](Cc2ccccc2)NC(=O)[C@H](Cc2c[nH]c3cc(Cl)ccc23)N(C)C(=O)[C@H](CC(C)C)NC1=O,,,4600,,,,Activity (OVCAR [3]): Active; Activity (HCT-116 [4]): Active; Activity (MDA-MB-231 [5]): Active; IC50 (L1210): 500 nM; IC50 (KB): 970 nM
CC[C@H](C)[C@@H]1NC(=O)[C@H](CC(C)C)NC(=O)[C@@H](N2C(=O)N[C@@H](C)C2=O)CNC(=O)[C@H](CS(=O)(=O)O)NC(=O)/C=C/c2csc(n2)[C@H](Cc2ccc(O)cc2)NC(=O)C1=O,17.6,1900,,inactive,inactive,inactive,
CCC[C@@H]1NC(=O)[C@@H](N2C(=O)N[C@@H](C)C2=O)CNC(=O)[C@H](CS(=O)(=O)O)NC(=O)/C=C/c2csc(n2)[C@H](Cc2ccc(O)cc2)NC(=O)C(=O)[C@H]([C@@H](C)CC)NC1=O,34.8,2500,,inactive,inactive,inactive,
CC[C@@H]1NC(=O)[C@@H](NC(=O)[C@H](C)N)CNC(=O)[C@H](CS(=O)(=O)O)NC(=O)/C=C/c2csc(n2)[C@H](Cc2ccc(O)cc2)NC(=O)C(=O)[C@H]([C@@H](C)CC)NC1=O (H-A[Dap][Abu][X1][X2][Cya]; lactam 2-C),16,1600,,,,,
CC[C@H](C)[C@@H]1NC(=O)[C@H](CC(C)C)NC(=O)[C@@H](NC(=O)[C@H](C)N)CNC(=O)[C@H](CS(=O)(=O)O)NC(=O)/C=C/c2csc(n2)[C@H](Cc2ccc(O)cc2)NC(=O)C1=O (H-A[Dap]L[X1][X2][Cya]; lactam 2-C),28,2000,6100,,,,
O=S(=O)(F)Cc1ccccc1 [PHENYLMETHYLSULFONYLFLUORIDE],138,420,,,,,
CC[C@@H]1NC(=O)[C@@H](N2C(=O)N[C@@H](C)C2=O)CNC(=O)[C@H](CS(=O)(=O)O)NC(=O)/C=C/c2csc(n2)[C@H](Cc2ccc(O)cc2)NC(=O)C(=O)[C@H]([C@@H](C)CC)NC1=O,61.8,2700,,inactive,inactive,inactive,
CCC[C@@H]1NC(=O)[C@@H](NC(=O)[C@H](C)N)CNC(=O)[C@H](CS(=O)(=O)O)NC(=O)/C=C/c2csc(n2)[C@H](Cc2ccc(O)cc2)NC(=O)C(=O)[C@H]([C@@H](C)CC)NC1=O (H-A[Dap][Nva][X1][X2][Cya]; lactam 2-C),20.1,2400,16100,,,,
